One test deals with RET tyrosine kinase (Homo sapiens (Human), UniProt P07949). Kind of test: Assay of small molecular compounds for inhibiting the activity of RET kinase (LANCE TR-FRET).
Sequence of RET tyrosine kinase (P07949 29-1114): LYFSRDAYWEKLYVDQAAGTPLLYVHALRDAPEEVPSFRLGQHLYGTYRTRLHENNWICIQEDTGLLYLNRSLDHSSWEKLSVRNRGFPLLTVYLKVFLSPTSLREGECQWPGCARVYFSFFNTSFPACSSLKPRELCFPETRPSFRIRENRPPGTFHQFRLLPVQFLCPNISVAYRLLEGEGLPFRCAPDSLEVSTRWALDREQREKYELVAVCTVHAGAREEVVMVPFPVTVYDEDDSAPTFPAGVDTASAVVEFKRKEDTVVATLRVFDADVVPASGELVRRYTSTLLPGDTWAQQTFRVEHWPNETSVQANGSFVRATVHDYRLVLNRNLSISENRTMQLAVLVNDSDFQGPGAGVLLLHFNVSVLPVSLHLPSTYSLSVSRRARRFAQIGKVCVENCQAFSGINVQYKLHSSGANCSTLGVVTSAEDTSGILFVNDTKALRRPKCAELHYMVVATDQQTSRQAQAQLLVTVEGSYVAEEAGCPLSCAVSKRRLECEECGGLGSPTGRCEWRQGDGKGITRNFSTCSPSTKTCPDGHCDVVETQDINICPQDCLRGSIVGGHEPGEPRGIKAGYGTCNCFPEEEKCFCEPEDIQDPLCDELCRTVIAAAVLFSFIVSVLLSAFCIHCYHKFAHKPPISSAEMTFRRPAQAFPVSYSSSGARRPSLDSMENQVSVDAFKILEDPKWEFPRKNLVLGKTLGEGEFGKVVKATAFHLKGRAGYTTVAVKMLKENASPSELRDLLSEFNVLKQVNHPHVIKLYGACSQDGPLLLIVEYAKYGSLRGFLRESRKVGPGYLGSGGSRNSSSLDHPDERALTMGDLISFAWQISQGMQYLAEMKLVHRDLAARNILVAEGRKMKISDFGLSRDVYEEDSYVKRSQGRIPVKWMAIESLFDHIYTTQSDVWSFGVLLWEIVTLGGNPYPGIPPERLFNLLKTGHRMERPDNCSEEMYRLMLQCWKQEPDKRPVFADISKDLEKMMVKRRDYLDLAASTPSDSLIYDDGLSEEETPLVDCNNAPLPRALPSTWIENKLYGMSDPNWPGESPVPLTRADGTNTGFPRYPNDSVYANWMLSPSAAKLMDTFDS
Details: not given
Background: In TR-FRET formats the signal depends on donor and acceptor labels being close together.
As a reminder, the IC50 is the concentration that gives 50% inhibition. Compound `COCCOc1cc2nccc(Oc3ccc(NC(=O)Nc4ccc(Cl)c(C(F)(F)F)c4)c(F)c3)c2c2c1OCCO2` [Example 37, 1-(4-chloro-3-(trifluoromethyl)phenyl)-3-(2-fluoro-4-((5-(2-methoxyethoxy)-2,3-dihydro-[1,4]dioxino[2,3-f]quinolin-10-yl)oxy)phenyl)urea] came in with an IC50 of less than 50 nM.

Turning to `COCCCOc1cc2nccc(Oc3ccc(NC(=O)Nc4ccc(Cl)c(C(F)(F)F)c4)cc3F)c2c2c1OCCO2` [Example 38, 1-(4-chloro-3-(trifluoromethyl)phenyl)-3-(3-fluoro-4-((5-(3-methoxypropoxy)-2,3-dihydro-[1,4]dioxino[2,3-f]quinolin-10-yl)oxy)phenyl)urea], the IC50 was in the range of 50 to 500 nM.

Compound `O=C(Nc1ccc(Oc2ccnc3cc(OCCCN4CCS(=O)(=O)CC4)c4c(c23)OCCO4)cc1)Nc1ccc(Cl)c(C(F)(F)F)c1` [Example 23, 1-(4-chloro-3-(trifluoromethyl)phenyl)-3-(4-((5-(3-(1,1-dioxothiomorpholino)propoxy)-2,3-dihydro-[1,4]dioxino[2,3-f]quinolin-10-yl)oxy)phenyl)urea] registered a half-maximal inhibitory concentration (IC50) of 50 to 500 nM.

Take `COCCOc1cc2nccc(Oc3ccc(NC(=O)NC4CCCC4)c(Cl)c3)c2c2c1OCCO2` [Example 71, 1-(2-chloro-4-((5-(2-methoxyethoxy)-2,3-dihydro-[1,4]dioxino[2,3-f]quinolin-10-yl)oxy)phenyl)-3-cyclopentylurea]: the IC50 is less than 50 nM.

On to `COc1cc2nccc(Oc3ccc(NC(=O)Nc4ccc(F)cc4)cc3)c2c2c1OCCO2` [Example 3, 1-(4-fluorophenyl)-3-(4-((5-methoxy-2,3-dihydro-[1,4]dioxino[2,3-f]quinolin-10-yl)oxy)phenyl)urea], for which the half-inhibitory concentration (IC50) lay in the range of 50 to 500 nM.

For `O=C(Nc1ccc(Oc2ccnc3cc(OC4CCOC4)c4c(c23)OCCO4)cc1)Nc1ccc(Cl)c(C(F)(F)F)c1` (stereo not drawn) [Example 32, 1-(4-chloro-3-(trifluoromethyl)phenyl)-3-(4-((5-((tetrahydrofuran-3-yl)oxy)-2,3-dihydro-[1,4]dioxino[2,3-f]quinolin-10-yl)oxy)phenyl)urea], the IC50 lay in the range of 50 to 500 nM.

Consider `O=C(Nc1ccc(Oc2ccnc3cc(OCCCN4CCOCC4)c4c(c23)OCCO4)cc1Cl)NC1CCCC1` [Example 75, 1-(2-chloro-4-((5-(3-morpholinopropoxy)-2,3-dihydro-[1,4]dioxino[2,3-f]quinolin-10-yl)oxy)phenyl)-3-cyclopentylurea], for which the IC50 is less than 50 nM.

The compound `O=C(Nc1ccc(Oc2ccnc3cc(OC4COC4)c4c(c23)OCCO4)cc1)Nc1ccc(Cl)c(C(F)(F)F)c1` [Example 31] showed an IC50 of 50 to 500 nM.

The compound `COCCCOc1cc2nccc(Oc3ccc(NC(=O)Nc4ccc(Cl)c(C(F)(F)F)c4)c(F)c3)c2c2c1OCCO2` [Example 39, 1-(4-chloro-3-(trifluoromethyl)phenyl)-3-(2-fluoro-4-((5-(3-methoxypropoxy)-2,3-dihydro-[1,4]dioxino[2,3-f]quinolin-10-yl)oxy)phenyl)urea] showed a 50% inhibitory concentration (IC50) of 50 to 500 nM.

`O=C(Nc1ccc(Oc2ccnc3cc(OCCCN4CCOCC4)c4c(c23)OCCO4)c(F)c1)Nc1ccc(Cl)c(C(F)(F)F)c1` [Example 41, 1-(4-chloro-3-(trifluoromethyl)phenyl)-3-(3-fluoro-4-((5-(3-morpholinopropoxy)-2,3-dihydro-[1,4]dioxino[2,3-f]quinolin-10-yl)oxy)phenyl)urea]: the IC50 fell in the range of 50 to 500 nM.

On to `O=C(Nc1ccc(Oc2ccnc3cc(OC4CCOCC4)c4c(c23)OCCO4)cc1)Nc1ccc(Cl)c(C(F)(F)F)c1` [Example 33, 1-(4-chloro-3-(trifluoromethyl)phenyl)-3-(4-((5-((tetrahydro-2H-pyran-4-yl)oxy)-2,3-dihydro-[1,4]dioxino[2,3-f]quinolin-10-yl)oxy)phenyl)urea], for which the IC50 was 50 to 500 nM.

`N#CCOc1cc2nccc(Oc3ccc(NC(=O)Nc4ccc(Cl)c(C(F)(F)F)c4)cc3)c2c2c1OCCO2` [Example 13, 1-(4-chloro-3-(trifluoromethyl)phenyl)-3-(4-((5-(cyanomethoxy)-2,3-dihydro-[1,4]dioxino[2,3-f]quinolin-10-yl)oxy)phenyl)urea]: the 50% inhibitory concentration (IC50) was 50 to 500 nM.

For the compound `COc1cc2nccc(Oc3ccc(NC(=O)Nc4ccc(F)cc4F)cc3)c2c2c1OCCO2` [Example 4, 1-(2,4-difluorophenyl)-3-(4-((5-methoxy-2,3-dihydro-[1,4]dioxino[2,3-f]quinolin-10-yl)oxy)phenyl)urea], the IC50 was in the range of 50 to 500 nM.

For the compound `COCCOc1cc2nccc(Oc3ccc(NC(=O)Nc4cc(C(F)(F)F)ccc4F)cc3)c2c2c1OCCO2` [Example 34, 1-(2-fluoro-5-(trifluoromethyl)phenyl)-3-(4-((5-(2-methoxyethoxy)-2,3-dihydro-[1,4]dioxino[2,3-f]quinolin-10-yl)oxy)phenyl)urea], the concentration for half-maximal inhibition (IC50) is less than 50 nM.

Compound `COc1cc2nccc(Oc3ccc(NC(=O)NCC(C)C)c(Cl)c3)c2c2c1OCCO2` [Example 83, 1-(2-chloro-4-((5-methoxy-2,3-dihydro-[1,4]dioxino[2,3-f]quinolin-10-yl)oxy)phenyl)-3-isobutylurea] had an IC50 of 50 to 500 nM.

The test is the same for the next values; noted with them: read-out: RET IC50.
Regarding `O=C(Nc1ccc(Cl)c(C(F)(F)F)c1)Nc1ccc(Oc2ccnc3cc(OCCCN4CCOCC4)c4c(c23)OCCO4)cc1F` [Example 42, 1-(4-chloro-3-(trifluoromethyl)phenyl)-3-(2-fluoro-4-((5-(3-morpholinopropoxy)-2,3-dihydro-[1,4]dioxino[2,3-f]quinolin-10-yl)oxy)phenyl)urea], the 50% inhibitory concentration (IC50) was less than 50 nM.

`COc1cc2nccc(Oc3ccc(NC(=O)NC4CCCC4)c(Cl)c3)c2c2c1OCCO2` [Example 69, 1-(2-chloro-4-((5-methoxy-2,3-dihydro-[1,4]dioxino[2,3-f]quinolin-10-yl)oxy)phenyl)-3-cyclopentylurea]: the IC50 is less than 50 nM.

For the compound `CC1(C)CCN(CCCOc2cc3nccc(Oc4ccc(NC(=O)Nc5ccc(Cl)c(C(F)(F)F)c5)cc4)c3c3c2OCCO3)CC1` [Example 24, 1-(4-chloro-3-(trifluoromethyl)phenyl)-3-(4-((5-(3-(4,4-dimethylpiperidin-1-yl)propoxy)-2,3-dihydro-[1,4]dioxino[2,3-f]quinolin-10-yl)oxy)phenyl)urea], the IC50 was less than 50 nM.

Take `COc1cc2nccc(Oc3ccc(NC(=O)Nc4cc(C(F)(F)F)ccc4F)cc3)c2c2c1OCCO2` [Example 2, 1-(2-fluoro-5-(trifluoromethyl)phenyl)-3-(4-((5-methoxy-2,3-dihydro-[1,4]dioxino[2,3-f]quinolin-10-yl)oxy)phenyl)urea]: the IC50 was less than 50 nM.

With `CCOc1cc2nccc(Oc3ccc(NC(=O)Nc4ccc(Cl)c(C(F)(F)F)c4)c(F)c3)c2c2c1OCCO2` [Example 35, 1-(4-chloro-3-(trifluoromethyl)phenyl)-3-(4-((5-ethoxy-2,3-dihydro-[1,4]dioxino[2,3-f]quinolin-10-yl)oxy)-2-fluorophenyl)urea], the IC50 is less than 50 nM.

For `O=C(Nc1ccc(Oc2ccnc3cc(OC4COC4)c4c(c23)OCCO4)cc1Cl)NC1CC1` [Example 65, 1-(2-chloro-4-((5-(oxetan-3-yloxy)-2,3-dihydro-[1,4]dioxino[2,3-f]quinolin-10-yl)oxy)phenyl)-3-cyclopropylurea], the concentration for half-maximal inhibition (IC50) is less than 50 nM.

Turning to `O=C(Nc1ccc(Oc2ccnc3cc(OCCCN4CCOCC4)c4c(c23)OCCO4)cc1)Nc1cc(C(F)(F)F)ccc1F` [Example 76, 1-(2-fluoro-5-(trifluoromethyl)phenyl)-3-(4-((5-(3-morpholinopropoxy)-2,3-dihydro-[1,4]dioxino[2,3-f]quinolin-10-yl)oxy)phenyl)urea], the IC50 is less than 50 nM.

For the compound `COc1cc2nccc(Oc3ccc(NC(=O)Nc4ccc(Cl)c(C(F)(F)F)c4)c(F)c3)c2c2c1OCCO2` [Example 6, 1-(4-chloro-3-(trifluoromethyl)phenyl)-3-(2-fluoro-4-((5-methoxy-2,3-dihydro-[1,4]dioxino[2,3-f]quinolin-10-yl)oxy)phenyl)urea], the IC50 was less than 50 nM.

As to `CC(C)Oc1cc2nccc(Oc3ccc(NC(=O)NC4CC4)c(Cl)c3)c2c2c1OCCO2` [Example 44, 1-(2-chloro-4-((5-isopropoxy-2,3-dihydro-[1,4]dioxino[2,3-f]quinolin-10-yl)oxy)phenyl)-3-cyclopropylurea], the IC50 is less than 50 nM.

As for `COc1cc2nccc(Oc3ccc(NC(=O)NC(C)C)c(Cl)c3)c2c2c1OCCO2` [Example 82, 1-(2-chloro-4-((5-methoxy-2,3-dihydro-[1,4]dioxino[2,3-f]quinolin-10-yl)oxy)phenyl)-3-isopropylurea], the IC50 is less than 50 nM.

With `COCCOc1cc2nccc(Oc3ccc(NC(=O)Nc4ccc(Cl)c(C(F)(F)F)c4)cc3F)c2c2c1OCCO2` [Example 36, 1-(4-chloro-3-(trifluoromethyl)phenyl)-3-(3-fluoro-4-((5-(2-methoxyethoxy)-2,3-dihydro-[1,4]dioxino[2,3-f]quinolin-10-yl)oxy)phenyl)urea], the IC50 was less than 50 nM.

In the case of `COCCCCCCOc1cc2nccc(Oc3ccc(NC(=O)Nc4ccc(Cl)c(C(F)(F)F)c4)cc3)c2c2c1OCCO2` [Example 29, 1-(4-chloro-3-(trifluoromethyl)phenyl)-3-(4-((5-((6-methoxyhexyl)oxy)-2,3-dihydro-[1,4]dioxino[2,3-f]quinolin-10-yl)oxy)phenyl)urea], the IC50 is less than 50 nM.

Consider `COc1cc2nccc(Oc3ccc(NC(=O)NC4CCC4)c(Cl)c3)c2c2c1OCCO2` [Example 68, 1-(2-chloro-4-((5-methoxy-2,3-dihydro-[1,4]dioxino[2,3-f]quinolin-10-yl)oxy)phenyl)-3-cyclobutylurea], for which the IC50 was less than 50 nM.

On to `COCCCOc1cc2nccc(Oc3ccc(NC(=O)Nc4cc(C(F)(F)F)ccc4F)cc3)c2c2c1OCCO2` [Example 40, 1-(2-fluoro-5-(trifluoromethyl)phenyl)-3-(4-((5-(3-methoxypropoxy)-2,3-dihydro-[1,4]dioxino[2,3-f]quinolin-10-yl)oxy)phenyl)urea], for which the IC50 was less than 50 nM.

On to `CC(C)COc1cc2nccc(Oc3ccc(NC(=O)NC4CC4)c(Cl)c3)c2c2c1OCCO2` [Example 45, 1-(2-chloro-4-((5-isobutoxy-2,3-dihydro-[1,4]dioxino[2,3-f]quinolin-10-yl)oxy)phenyl)-3-cyclopropylurea], for which the IC50 is less than 50 nM.

The record behind these values is patent publication US11479559B2, “Urea-substituted aromatic ring-linked dioxinoquinoline compounds, preparation method and uses thereof” (BEIJING SCITECH-MQ PHARMACEUTICALS LIMITED, priority 2018, dated 2022).
